# Test results published in patent publication US8901168B2 (priority 2007, dated 2014).
# Test system: anti-TT antibodies
# Design: species or system BALB/c mice
# Conditions: mouse, in vivo
SMILES,anti-TT Ig titres,anti-TT antibody titres after the third vaccination vs α-T treated mice,"anti-TT antibody titres after the third vaccination, ranking of groups",antibody titres after the third immunisation as compared to first immunisation
"Cc1c(C)c2c(c(C)c1O)CC[C@@](C)(CCC[C@H](C)CCC[C@H](C)CCCC(C)C)O2 [α-T, α-tocopherol]",significantly (P<0.05) enhanced,–,–,–
"CC(C)=CCC/C(C)=C/CC/C(C)=C/CC[C@]1(C)CCc2cc(O)cc(C)c2O1 [δ-T3, δ-tocotrienol]",significantly (P<0.05) enhanced,significantly (P<0.01) higher,highest,highly significant (P<0.01) antibody titres
